Experimental data as given in patent US20250129102A1, “CRYSTAL FORM OF PYRIMIDINE HETEROCYCLIC COMPOUND AND PREPARATION METHOD THEREFOR” (D3 Bio (Wuxi) Co., Ltd., priority 2021, published 2025).

Assay: In vitro stability in liver microsomes, cynomolgus monkeys
Assay type: in vitro ADME
Settings: cynomolgus monkey, 0.5 mg/mL
Procedure: Metabolic stabilities of the assay compound in liver microsomes of CD-1 mice, SD rats, beagle dogs, cynomolgus monkeys, and human were assayed, respectively.
Two 96-well incubation plates were prepared and named T60 incubation plate and NCF60 incubation plate, respectively. 445 μL of microsomal working solutions (liver microsomal protein concentration of 0.56 mg/mL) were added to the T60 incubation plate and the NCF60 incubation plate, respectively, and then the above incubation plates were pre-incubated in a 37° C. water bath for about 10 minutes.
After the pre-incubation, 5 μL of working solutions of the assay sample or the control compound were added to the T60 incubation plate and the NCF60 incubation plate, respectively, and the mixture was mixed well. 50 μL of potassium phosphate buffer was added to each well of the NCF60 incubation plate to initiate the reaction. 180 μL of stop solution (200 ng/mL tolbutamide and 200 ng/mL labetalol in acetonitrile) and 6 uL of NADPH regeneration system working solution were added to the T0 stop plate, and 54 μL of sample was transferred from T60 incubation plate to T0 stop plate (generation of T0 sample). The reaction was initiated by adding 44 μL of NADPH regeneration system working solution to each well of the T60 incubation plate. Only 54 μL of microsome working solution, 6 uL of NADPH regeneration system working solution and 180 μL of stop solution were added to the Blank plate. Therefore, in samples of the assay compound or the control compound, the final reaction concentration of compound, testosterone, diclofenac and propafenone was 1 μM, the concentration of liver microsomes was 0.5 mg/mL, and the final reaction concentrations of DMSO and acetonitrile in the reaction system were 0.01% (v/v) and 0.99% (v/v), respectively. […] All samples were injected and analyzed by liquid chromatography-tandem mass spectrometry.

## C=C(F)C(=O)N1CCN(c2nc(OC[C@@]34CCCN3C[C@H](F)C4)nc3c2CO[C@H](c2c(F)c(N)cc(C)c2C(F)(F)F)C3)C[C@@H]1CC#N [Compound of formula (I)]
  CLint scaled at 1 μM: 303 mL/min/kg
  half-life at 1 μM: 6.2 min
read-out: CLint(hep)
  microsomal CLint at 1 μM: 225 µL/min/mg
